Test results: patent US20180243325A1, “METHOD FOR INHIBITING ABSORPTION OF AND/OR PROMOTING EXCRETION OF LIPIDS USING D-PSICOSE” (CJ CHEILJEDANG CORPORATION, priority 2015, published 2018)

Legend:
Assay type in all cases: in vivo, C57BL/6J mice
[1] = system: high-fat diet-induced obese mice; assay: Body weight, organ weight and adipose tissue weight of high-fat diet-induced obese mice; details: for Adipose times weight: Epididymal fat / Adipose times weight: Interscapular BAT / Adipose times weight: Interscapular WAT / Adipose times weight: Mesentery fat / Adipose times weight: Perinephric fat / Adipose times weight: Retroperitoneum fat / Adipose times weight: Subcutaneous fat / Adipose times weight: Total WAT / Adipose times weight: Visceral fat / BWG (weight gain) / FER (food efficiency ratio = Weight gain/diet intake) / FinalBodyweight / Organ weights: Kidney / Organ weights: Liver / Organ weights: Muscle: HFD+5% w/w in diet, 16 weeks
Protocol: (§1) First, 4-week-old male C57BL/6J mice (60 total) were purchased from Jackson Laboratory. The animals were acclimated to the vivarium in a thermo-hygrostat (20-23° C., 45-65%) under a 12 h light/dark cycle and fed a pelletized commercial non-purified diet for 1 week after arrival. The mice were then randomly divided into 6 groups (n=10) and fed the respective experimental diets for 16 weeks: normal diet group (ND, American Institute of Nutrition (AIN)-76 semi-synthetic diet), high-fat diet group (HFD, 20% fat+1% cholesterol based on AIN-76 diet), PSI group (HFD+5% D-psicose, w/w, Sigma Chemical Company), ERY group (HFD+5% erythritol, w/w, Sigma Chemical Company), GLU group (HFD+5% D-glucose, w/w, Sigma Chemical Company), and FRU group (HFD+5% D-fructose, w/w, Sigma Chemical Company). All high-fat diet-fed groups were allowed to ingest the same calories by pair feeding based on the PSI group. The mice had ad libitum access to distilled water during the experimental period. Their feed intakes and body weights were measured daily and biweekly, respectively. The organ weights and the adipose tissue weights of the mice were measured after sacrificing the animals.

Fatty acid β-oxidation = assay: Hepatic fatty acid β-oxidation activity; details: FIG. 4B, liver, HFD+5% w/w in diet, 16 weeks
Protocol: as §1, with “animals. Samples were prepared and analyzed according to the method developed by Hulcher and Oleson. Specifically, the activity of fatty acid synthase (FAS) as a hepatic lipid regulating enzyme was measured by spectrophotometric assay according to the method described by Nepokroeff et al. Each sample was mixed with 100 μl of cytoplasmic fraction and the mixture was allowed to react at 30° C. for 2 min. A reduction in absorbance at 340 nm was measured. Fatty acid synthase (FAS) activity units were expressed as nanomoles (nmol) of NADPH oxidized for 1 min per mg of cytoplasmic fraction. Fatty acid β-oxidation activity was measured by monitoring the reduction of NAD^+ to NADH in the presence of palmitoyl-CoA, as described by Lazarow. β-oxidation activity units were expressed as nanomoles (nmol) of NADH produced for 1 min per mg of mitochondrial protein.” for “animals.”

[2] = system: high-fat diet-induced obese mice; assay: Adipose tissue morphologies (epididymal WAT, H&E); details: FIG. 5B, 200×, HFD+5% w/w in diet, 16 weeks
Protocol: as §1
Epididymal WATs were removed from the mice in the normal diet group (ND) and high-fat diet groups (HFD, ERY, GLU, FRU, and PSI) and fixed in a buffer solution of 10% formalin. The fixed epididymal WATs were embedded in paraffin. […] sections were prepared from the epididymal WATs and their cross-sections were dyed with hematoxylin and eosin. Stained areas were observed using an optical microscope at a magnification of 200× (Nikon, Tokyo, Japan).

[3] = system: CPT1α (Carnitine palmitoyltransferase 1α, 12894); assay: Hepatic mRNA expression, real-time quantitative PCR: CPT1α; details: FIG. 6, liver, HFD+5% w/w in diet, 16 weeks
Protocol: as §1
Samples were prepared and analyzed as previously described. Specifically, total RNA was synthesized into cDNA using a QuantiTect Reverse Transcription kit (QIAGEN Gmb1h, Hilden, Germany). RNA expression was quantified with real-time quantitative PCR using a QuantiTect SYBR Green PCR kit (QIAGEN Gmb1h, Hilden, Germany). Primers were designed to detect FAS (fatty acid synthase, 14101), ACC1 (Acetyl-CoA carboxylase 1, 107476), CPT1α (Carnitine palmitoyltransferase 1α, 12894), and CPT2 (Carnitine palmitoyltransferase 2, 12896). GAPDH was used as an internal transcription marker. The reaction was performed a total of 40 cycles (each consisting of 15 sec at 94° C., 30 sec at 58° C., 30 sec at 72° C., and 15 sec at 65° C.). Fluorescence signals were monitored every cycle and the resulting threshold cycles (Ct) were analyzed. mRNA expression in each experimental group was quantified using a CFX96 Real time system (Bio-rad, USA).

[4] = system: high-fat diet-induced obese mice; assay: Lipid excretion in feces; details: FIG. 7, HFD+5% w/w in diet, 16 weeks
Protocol: as §1
Lipids were extracted from feces from mice in the normal diet group (ND) and the high-fat diet groups (HFD, ERY, GLU, FRU, and PSI) and dried. Then, each of the dried lipid extracts was dissolved in 1 ml of ethanol. 200 μl of the lipid solution was emulsified in a solution of Triton X-100 and sodium cholate in distilled water. Triglyceride, cholesterol, and fatty acid levels in the feces were analyzed using the same enzymatic kits as those used in Example 2.

## OC[C@@H](O)[C@@H](O)CO [ERY, erythritol]
[1]
  Adipose times weight: Epididymal fat: 7.92 g/100 g Body weight
  Adipose times weight: Interscapular BAT: 0.57 g/100 g Body weight
  Adipose times weight: Interscapular WAT: 4.56 g/100 g Body weight
  Adipose times weight: Mesentery fat: 2.43 g/100 g Body weight
  Adipose times weight: Perinephric fat: 0.92 g/100 g Body weight
  Adipose times weight: Retroperitoneum fat: 2.21 g/100 g Body weight
  Adipose times weight: Subcutaneous fat: 4.88 g/100 g Body weight
  Adipose times weight: Total WAT: 22.93 g/100 g Body weight
  Adipose times weight: Visceral fat: 18.36 g/100 g Body weight
  BWG (weight gain): 1.32 g/16 weeks
  FER (food efficiency ratio = Weight gain/diet intake): 0.059
  FinalBodyweight: 40.22 g
  Organ weights: Kidney: 0.77 g/100 g Bodyweight
  Organ weights: Liver: 5.37 g/100 g Bodyweight
  Organ weights: Muscle: 0.77 g/100 g Bodyweight
Fatty acid β-oxidation
  hepatic fatty acid β-oxidation activity: increased significantly compared to those in the ND group
[2]
  size of adipocytes in the epididymal WATs: increase in the size of adipocytes
[3]
  hepatic mRNA expression level of CPT1α: significantly lower than those in the ND group
[4]
  cholesterol level in the feces: significantly higher than those from the normal diet group
  fatty acid level in the feces: significantly higher than those from the normal diet group
  triglyceride level in the feces: significantly higher than those from the normal diet group

## O=C(CO)[C@@H](O)[C@H](O)[C@H](O)CO [FRU, D-fructose]
[1]
  Adipose times weight: Epididymal fat: 8.50 g/100 g Body weight
  Adipose times weight: Interscapular BAT: 0.73 g/100 g Body weight
  Adipose times weight: Interscapular WAT: 4.43 g/100 g Body weight
  Adipose times weight: Mesentery fat: 2.93 g/100 g Body weight
  Adipose times weight: Perinephric fat: 1.17 g/100 g Body weight
  Adipose times weight: Retroperitoneum fat: 2.19 g/100 g Body weight
  Adipose times weight: Subcutaneous fat: 3.78 g/100 g Body weight
  Adipose times weight: Total WAT: 22.65 g/100 g Body weight
  Adipose times weight: Visceral fat: 18.22 g/100 g Body weight
  BWG (weight gain): 1.39 g/16 weeks
  FER (food efficiency ratio = Weight gain/diet intake): 0.065
  FinalBodyweight: 41.26 g
  Organ weights: Kidney: 0.84 g/100 g Bodyweight
  Organ weights: Liver: 5.68 g/100 g Bodyweight
  Organ weights: Muscle: 0.83 g/100 g Bodyweight
Fatty acid β-oxidation
  hepatic fatty acid β-oxidation activity: increased significantly compared to those in the ND group
[2]
  size of adipocytes in the epididymal WATs: increase in the size of adipocytes
[3]
  hepatic mRNA expression level of CPT1α: significantly lower than those in the ND group
[4]
  cholesterol level in the feces: significantly higher than those from the normal diet group
  fatty acid level in the feces: significantly higher than those from the normal diet group
  triglyceride level in the feces: significantly higher than those from the normal diet group

## O=C[C@H](O)[C@@H](O)[C@H](O)[C@H](O)CO [GLU, D-glucose]
[1]
  Adipose times weight: Epididymal fat: 8.42 g/100 g Body weight
  Adipose times weight: Interscapular BAT: 0.71 g/100 g Body weight
  Adipose times weight: Interscapular WAT: 4.54 g/100 g Body weight
  Adipose times weight: Mesentery fat: 2.62 g/100 g Body weight
  Adipose times weight: Perinephric fat: 1.15 g/100 g Body weight
  Adipose times weight: Retroperitoneum fat: 2.01 g/100 g Body weight
  Adipose times weight: Subcutaneous fat: 5.47 g/100 g Body weight
  Adipose times weight: Total WAT: 24.21 g/100 g Body weight
  Adipose times weight: Visceral fat: 19.67 g/100 g Body weight
  BWG (weight gain): 1.39 g/16 weeks
  FER (food efficiency ratio = Weight gain/diet intake): 0.065
  FinalBodyweight: 41.77 g
  Organ weights: Kidney: 0.74 g/100 g Bodyweight
  Organ weights: Liver: 5.22 g/100 g Bodyweight
  Organ weights: Muscle: 0.82 g/100 g Bodyweight
Fatty acid β-oxidation
  hepatic fatty acid β-oxidation activity: increased significantly compared to those in the ND group
[2]
  size of adipocytes in the epididymal WATs: increase in the size of adipocytes
[3]
  hepatic mRNA expression level of CPT1α: significantly lower than those in the ND group
[4]
  cholesterol level in the feces: significantly higher than those from the normal diet group
  fatty acid level in the feces: significantly higher than those from the normal diet group
  triglyceride level in the feces: significantly higher than those from the normal diet group

## O=C(CO)[C@H](O)[C@H](O)[C@H](O)CO [PSI, D-psicose]
[1]; FIG. 1, HFD+5% w/w in diet, measured biweekly over 16 weeks
  increases in the body weight over time: considerably inhibited from 4 weeks after diet feeding
[1]
  BWG (weight gain): 0.70 g/16 weeks
  Organ weights: Liver: 4.35 g/100 g Bodyweight
[1]; listed as D-psicose
  Organ weights: Liver: to levels similar to those of the ND group
Fatty acid β-oxidation
  hepatic fatty acid β-oxidation activity: decreased significantly compared to those in other high-fat diet groups
[2]
  size of adipocytes in the epididymal WATs: relatively small compared to that in the other high-fat diet groups
[3]
  hepatic mRNA expression level of CPT1α: much significantly lower than those in the ND group
[4]
  cholesterol level in the feces: significantly higher than those from other high-fat diet groups
  fatty acid level in the feces: significantly higher than those from other high-fat diet groups
  triglyceride level in the feces: significantly higher than those from other high-fat diet groups
